From PubChem BioAssay (NCI)
Values joined by “and” are separate entries in the source; they are usually repeats but may differ in a detail not shown here. Identical values can stand only once.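 Tested at 5 concentrations; 48 h exposure; 96-well plates; endpoints linearly interpolated, else capped at highest concentration. GI50 is the concentration that inhibits growth by half. TGI marks complete inhibition of growth.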

How the values were obtained:
Experiment in all cases: DTP human tumour cell line panel, 48 h
IGROV1 ovarian = tested on: IGROV1 ovarian
CCRF-CEM leukemia = tested on: CCRF-CEM leukemia
RXF 393 renal = tested on: RXF 393 renal
SW-620 colon = tested on: SW-620 colon
SN12C renal = tested on: SN12C renal
HOP-92 NSCLC = tested on: HOP-92 NSCLC
NCI-H460 lung = tested on: NCI-H460 lung
A549 NSCLC = tested on: A549 NSCLC
CAKI-1 renal = tested on: CAKI-1 renal
SK-OV-3 ovarian = tested on: SK-OV-3 ovarian

| Compound | GI50 (IGROV1 ovarian) | TGI (IGROV1 ovarian) | GI50 (CCRF-CEM leukemia) | TGI (CCRF-CEM leukemia) | GI50 (RXF 393 renal) | TGI (RXF 393 renal) | GI50 (SW-620 colon) | TGI (SW-620 colon) | GI50 (SN12C renal) | TGI (SN12C renal) | GI50 (HOP-92 NSCLC) | TGI (HOP-92 NSCLC) | GI50 (NCI-H460 lung) | TGI (NCI-H460 lung) | GI50 (A549 NSCLC) | TGI (A549 NSCLC) | GI50 (CAKI-1 renal) | TGI (CAKI-1 renal) | GI50 (SK-OV-3 ovarian) | TGI (SK-OV-3 ovarian) |
| --- | --- | --- | --- | --- | --- | --- | --- | --- | --- | --- | --- | --- | --- | --- | --- | --- | --- | --- | --- | --- |
| O=C1c2cc(Cl)ccc2-c2c1c1ccc([N+](=O)[O-])cc1c(=O)n2CCCBr | 5.77 µM | 90.8 µM | 0.625 µM | > 100 µM | 17.6 µM | > 100 µM | 3.78 µM | > 100 µM | 2.5 µM | 8.89 µM | 0.539 µM | 8.98 µM | 0.931 µM | > 100 µM | 5.85 µM | > 100 µM | 1.72 µM | 19.3 µM | 7.79 µM | > 100 µM |
| O=C(N/N=C(/CCN1CCCC1)CC(c1ccccc1)c1c(O)c2ccccc2oc1=O)c1ccncc1 (configuration not stated) | – | > 100 µM | – | > 100 µM | – | > 100 µM | – | > 100 µM | – | > 100 µM | – | > 100 µM | – | > 100 µM | – | > 100 µM | – | > 100 µM | – | > 100 µM |
| CN(C)/N=C(/c1nc2ccc(Cl)cc2[nH]c1=O)C(O)c1ccc(C(O)/C(=N\N(C)C)c2nc3ccc(Cl)cc3[nH]c2=O)cc1 (configuration not stated) | – | > 100 µM | – | > 100 µM | – | > 100 µM | – | > 100 µM | – | > 100 µM | – | > 100 µM | – | > 100 µM | – | > 100 µM | – | > 100 µM | – | > 100 µM |
| CNCCn1c(=O)c2cc(OC)c(OC)cc2c2ccc3cc4c(cc3c21)OCO4 | 0.142 µM | 2.29 µM | 0.0203 µM | 0.952 µM | 0.168 µM | 0.727 µM | 0.0572 µM | 3.09 µM | 0.173 µM | 3.97 µM | 0.16 µM | 2.13 µM | 0.0226 µM | 0.558 µM | 0.116 µM | 0.638 µM | 0.0718 µM | 0.588 µM | 0.157 µM | 1.32 µM |
| NC(=O)c1cc2c3ccccc3ccn2c1-c1ccccc1 | 0.141 µM | 33.4 µM | 0.0425 µM | 13.8 µM | 0.0462 µM | 2.26 µM | 0.0357 µM | 25 µM | 0.0889 µM | 15.2 µM | 0.0179 µM | 7.77 µM | 0.042 µM | 10.5 µM | 0.0969 µM | 9.82 µM | 0.143 µM | 3.54 µM | 0.0503 µM | 12.7 µM |
| COc1ccc(Cn2cc3c(c2)-c2oncc2CC3)cc1 | 4.56 µM | > 100 µM | 2.87 µM | > 88.6 µM | 5.25 µM | 28.1 µM | 2.8 µM | > 100 µM | 10.1 µM | > 100 µM | 5.14 µM | 37.3 µM | 3.47 µM | 16.5 µM | 7.26 µM | > 74.4 µM | 6.24 µM | > 100 µM | 4.92 µM | > 82.1 µM |
| CS(=O)(=O)CSCSSCS(C)(=O)=O | – | > 100 µM | – | 70.5 µM | – | 36.1 µM | – | 34.3 µM | – | > 93.3 µM | – | 98.2 µM | – | > 84.8 µM | – | > 100 µM | – | > 57.2 µM | – | > 100 µM |
| COc1ccc(N2C(=O)[C@H]3CC(C)c4c([nH]c5ccccc45)[C@H]3C2=O)cc1 (some centres not stated) | – | 85.9 µM | – | 46.9 µM | – | 9.75 µM | – | > 86.8 µM | – | 83.9 µM | – | 23.3 µM | – | 41.9 µM | – | > 90.7 µM | – | 27.3 µM | – | 23.6 µM |
| Cc1ccc(-c2cc(-c3ccco3)c(C#N)c(=O)n2C2OC(OC(=O)c3ccccc3)C(OC(=O)c3ccccc3)C2OC(=O)c2ccccc2)cc1 (configuration not stated) | – | > 100 µM | – | > 100 µM | – | 88.4 µM | – | > 100 µM | – | > 100 µM | – | 59.4 µM | – | > 100 µM | – | > 100 µM | – | > 100 µM | – | > 100 µM |
| CCC[n+]1cc2cc(OC)c(OC)cc2c2c1-c1cc3c(cc1C2)OCO3 | 2.27 µM | 12.6 µM | 2.53 µM | – | 17 µM | 35.7 µM | 2.83 µM | 23.7 µM | 0.638 µM | 6.84 µM | 10.1 µM | 40.6 µM | 2.98 µM | 11.3 µM | 18.3 µM | 35.5 µM | 7.14 µM | 44.2 µM | 25.6 µM | 52.3 µM |
| Cc1cc(S(=O)(=O)NC#N)c(S/C(=N\Nc2ccc([N+](=O)[O-])cc2)c2ccc(Cl)cc2)cc1Cl | > 100 µM | > 100 µM | 32.1 µM | > 100 µM | 34.4 µM | > 100 µM | 21.1 µM | 52.1 µM | > 100 µM | > 100 µM | 19.4 µM | 96.9 µM | 26.7 µM | > 100 µM | 52.6 µM | > 100 µM | 36.1 µM | > 100 µM | 17.9 µM | 57.6 µM |
| Cc1[nH]nc(C(=O)n2nc(N)c3ccccc32)c1[N+](=O)[O-] | 37.5 µM | > 100 µM | 32.2 µM | > 100 µM | > 100 µM | > 100 µM | > 100 µM | > 100 µM | > 100 µM | > 100 µM | 56.4 µM | > 100 µM | > 100 µM | > 100 µM | > 100 µM | > 100 µM | > 100 µM | > 100 µM | > 100 µM | > 100 µM |
| COC1C2C=CC(C2)[C@H]1[N+](=O)[O-] (some centres not stated) | – | > 100 µM | – | > 100 µM | – | > 100 µM | – | > 100 µM | – | > 100 µM | – | > 100 µM | – | > 100 µM | – | > 100 µM | – | > 100 µM | – | > 100 µM |
| COC(=O)C(CC(=O)Nc1ccc(C)cc1)C(=O)C(=O)Nc1ccccc1C(C)C (configuration not stated) | – | > 100 µM | – | > 100 µM | – | > 100 µM | – | 41.7 µM | – | > 100 µM | – | > 100 µM | – | > 100 µM | – | > 100 µM | – | > 100 µM | – | > 100 µM |
| CN1C(=O)N(C)C2C1NN=c1s/c(=C\c3ccc(F)cc3)c(=O)n12 (configuration not stated) | 3.21 µM | > 100 µM | 1.91 µM | > 100 µM | 0.785 µM | 6 µM | 1.86 µM | > 100 µM | 6.97 µM | > 100 µM | 8.49 µM | > 100 µM | 2.77 µM | > 100 µM | 4.88 µM | > 100 µM | 1.68 µM | > 100 µM | 3.57 µM | > 100 µM |
| Nc1ccc(C(=O)CC(N)C(=O)O)cc1O (configuration not stated) | – | > 100 µM | – | > 100 µM | – | > 100 µM | – | > 100 µM | – | > 100 µM | – | > 100 µM | – | > 100 µM | – | > 100 µM | – | > 100 µM | – | > 100 µM |
| CCOC(=O)c1s/c(=N\Nc2nc3ccccc3cc2C2OCCO2)n(Cc2ccccc2)c1C | – | > 100 µM | – | > 100 µM | – | > 100 µM | – | > 100 µM | – | > 100 µM | – | > 100 µM | – | > 100 µM | – | > 100 µM | – | > 100 µM | – | > 100 µM |
| COc1ccc(Cn2c3c(cc(OS(=O)(=O)C(F)(F)F)c2=O)Cc2ccccc2-3)cc1 | 7.26 µM | 50 µM and > 100 µM | 3.95 µM | 50 µM and > 100 µM | – | 50 µM and > 100 µM | 5.29 µM | 50 µM and > 100 µM | 5.91 µM | 50 µM and 47 µM | 17.6 µM | 50 µM and > 100 µM | – | 50 µM and 36.4 µM | 9.95 µM | 50 µM and > 100 µM | 53 µM | 50 µM and > 100 µM | > 100 µM | 50 µM and > 100 µM |
| Cc1cc(C)c(C(=O)c2no[n+]([O-])c2C(=O)c2c(C)cc(C)c(Br)c2C)c(C)c1Br | – | 23.3 µM | – | 8.88 µM | – | 19.9 µM | – | 26.9 µM | – | 33.4 µM | – | 20.3 µM | – | 45.8 µM | – | 39.1 µM | – | 44.8 µM | – | 52.3 µM |
| COc1ccccc1/C=C/C(=O)c1ccccc1 | 2.2 µM | 8.7 µM | 2.87 µM | 11.5 µM | 5.94 µM | 16.1 µM | 2.66 µM | 7.08 µM | 7.55 µM | 22.9 µM | 6.3 µM | 30.7 µM | 13.7 µM | 31.9 µM | 17.9 µM | 38.8 µM | 6.3 µM | 18.6 µM | 33.3 µM | > 100 µM |
| Cn1c2c(c3ccc(Cl)c(Cl)c31)C(C#N)C1(CCNCC1)NC2=O (configuration not stated) | 1.66 µM | 3.83 µM | 1.93 µM | 4.72 µM | 1.52 µM | 5.79 µM | 1.65 µM | 3.26 µM | 2.51 µM | 12.6 µM | 0.484 µM | 2.37 µM | 1.71 µM | 3.79 µM | 2.42 µM | 7.89 µM | 0.384 µM | 1.75 µM | 2.73 µM | 8.97 µM |
